Patent US20110206638A1, “COMPOSITIONS AND METHODS FOR REDUCING THE MUTATION RATE OF VIRUSES” (priority 2010, published 2011)
“Also recorded” adds a separate entry of the source.

How the values were obtained:
Con1 replicon cells = test: 8-OHG oxidative RNA damage in SgPC2 Con1 replicon cells (ELISA); type: cell-based, human; details: for level of 8-OHG in ethanol and BSO-treated replicon cells with inhibitor: 0.5% ethanol or 20 μM BSO daily for 48 hr, 10 μM dipyridyl, 2 mM GSH ester, 5 μM PIH, 0.1 mM DETAPAC, 1 mM L-NMA, DPI, 25 μM DADS
Procedure: Total RNA was isolated using Trizol (Invitrogen) and analyzed for 8-OH-guanosine (8-OH-G) by northwestern, as described (Shan X et al. (2003) J. Neurosci. 23:4913-4921). Briefly, RNA was size-fractionated by agarose gel electrophoresis, transferred to a nylon membrane, blocked with 1% BSA, incubated sequentially with monoclonal anti-8-OH-G/dG antibodies (QED Bioscience, Inc.) and then with goat anti-mouse HRP-conjugated secondary antibody (Santa Cruz Biotechnology), and signals were detected, using an ECL kit (Amersham). In addition, RNA was digested with nuclease P1 (Sigma, US Biological) and alkaline phosphatase (Promega) and analyzed for 8-OH-G content using RNA Damage Kit (Cell Biolabs, Inc.), following manufacturer's protocols.
Total RNA was isolated using Trizol (Invitrogen) and analyzed for 8-OHG by ELISA. Briefly, RNA was incubated with 10 U DNase I (GE Healthcare), 10 U nuclease P1 (Sigma or US Biological), and 10 U alkaline phosphatase (Promega) and analyzed for 8-OHG content with RNA Damage Kit (Cell Biolabs, Inc.) and 8-OHG standards, following manufacturer's protocols.

[1] = system: subgenomic HCV replicon of genotype 1b (Con1S1179I), NS5A region; test: NS5A sequencing of HCV RNA, nucleotide and amino acid substitution rates in Con1 replicon cells (Example 2); type: cell-based, Hepatitis C virus; details: for amino acid substitution rate in the BSO group with co-treatment: 20 μM BSO daily for 48 hr; for amino acid substitution rate in the BSO group with co-treatment / amino acid substitution rate in the ethanol group with co-treatment / nt. substitution rates of ethanol and BSO groups with co-treatment / dn/ds ratio in the BSO group with co-treatment: 10 μM dipyridyl or 2 mM GSH ester; for amino acid substitution rate in the ethanol group with co-treatment: 0.5% ethanol daily for 48 hr; for nt. substitution rates of ethanol and BSO groups with co-treatment: 0.5% ethanol or 20 μM BSO daily for 48 hr; for percentage of sites undergoing positive selection with co-treatment: FIG. 8A; for dn/ds ratio of the control group with co-treatment: from 0.31 without inhibitor; for dn/ds ratio in the BSO group with co-treatment: from 0.72 without inhibitor, 48 hr; for Nt. change per site: Con1 replicon cells, once daily for 48 hrs, T7 baseline subtracted, ethanol 0.5% v/v, BSO 20 μM, H2O2 100 μM, acetaldehyde 10 μM; for Fold increase (Amino acid change per site): over control, 48 hrs
Procedure: Huh7 cell clones (SgPC2 cells) supporting continuous replication of a subgenomic HCV replicon of genotype 1b (Con1S1179I sequence) were used (Choi J. et al. (2004) Hepatology 39:81-89; Blight K J et al. (2000) Science 290:1972). Subgenomic replicons support the HCV RNA genome replication by the viral replicase but no virus is formed. The in vitro transcription, transfection of the viral RNA, and Huh7 human hepatoma cell culture were performed as described (Choi J. et al. (2004) Hepatology 39:81-89; Blight K J et al. (2000) Science 290:1972). All biochemicals including ethanol (molecular biology grade), acetaldehyde, BSO, H2O2, dipyridal, and GSH ethyl ester were obtained from SigmaAldrich except PIH, which was synthesized according to published methods (Kicic A et al., (2001) Cancer 92: 3093-3110; Ponka P. et al., (1979) FEBS Lett 97: 317-321).
Total RNAs were collected using Trizol (Invitrogen). Then, the NS5A region (nt. 4612 to 6013 of Con1 replicon) was reverse transcribed/amplified with AccuScript High Fidelity RT-PCR System (Agilent). The reverse primer used for reverse transcription and PCR amplification was 5′-[…]-3′ (SEQ ID NO: 1), and the forward primer was 5′-[…]-3′ (SEQ ID NO: 2). The XbaI and HindIII restriction enzyme sites are underlined. The cDNA products were cloned into pUC19 via HindIII and XbaI sites and sequenced at the Joint Genome Institute (Livermore, Calif.) and University of California Berkeley Sequencing (Berkeley, Calif.). Sequences were aligned against Con1(S1179I) sequence, using BioEdit/MEGA 4.0 Molecular Evolutionary Genetics Analysis software. Cumulative synonymous and nonsynonymous mutations were computed using Synonymous Nonsynonomous Analysis Program (SNAP; www.hcv.lanl.gov). The […] ratio was calculated using SNAP. Amino acid substitution trends were analyzed by position with MutationCounter, a mutation counting program, developed for this project. The sequences were compared with 1,212 genotype 1b NS5A sequences pooled from the Lawrence Livermore HCV sequence database (www.hcv.lanl.gov) which included sequences from the European, Asian, and Russian databases. Sequences harboring gaps, undetermined nucleotides, or incomplete NS5A sequences were removed prior to the analysis.
To test whether ethanol can affect the HCV RNA sequence, Con1 replicon cells that support genotype 1b subgenomic HCV RNA replication were incubated with ethanol (0.5% v/v), BSO (20 μM), H2O2 (100 μM), or acetaldehyde (10 μM) once daily for 48 hrs with a change of the cell culture medium at the time of each treatment. Acetaldehyde and H2O2 are generated during hepatic metabolism of ethanol. BSO, by inhibiting GSH biosynthesis, mimics GSH depletion seen in hepatitis C patients. GSH participates in detoxification reactions that remove reactive species such as H2O2 and acetaldehyde. Thus, by decreasing GSH, BSO also amplifies the effects of endogenous ROS and RNS, allowing one to test the effects of endogenous ROS/RNS. Then, the RNA was collected, and the NS5A region corresponding to nt. 4612 to 6013 of Con1 replicon was reverse transcribed using AccuScript reverse transcriptase and amplified with PfuUltra (Agilent). PfuUltra is a high fidelity DNA polymerase with an error rate of 4.3×10^−9; AccuScript reverse transcriptase has an error rate of 1.61×10^−7. Then, the cDNA products were cloned into pUC19 and sequenced by the Sanger method.

[2] = system: subgenomic HCV replicon of genotype 1b (Con1), NS5A region; test: NS5A sequencing of HCV RNA, mutation frequency in SgPC2 Con1 replicon cells (Example 1); type: cell-based, Hepatitis C virus; details: H2O2 100 μM, acetaldehyde 10 μM, once daily for 48 hrs
Procedure: Huh7 cell clones (SgPC2 cells) supporting continuous replication of a subgenomic HCV replicon of genotype 1b (Con1 sequence) were used (Choi J. et al. (2004) Hepatology 39:81-89; Blight K J et al. (2000) Science 290:1972). The subgenomic replicons support HCV RNA replication but no virus is formed. The in vitro transcription, transfection of HCV RNA, and Huh7 human hepatoma cell culture were performed by methods known in the art and as previously described (Choi J. et al. (2004) Hepatology 39:81-89; Blight K J et al. (2000) Science 290:1972).
After various treatments, total RNAs were collected using Trizol (Invitrogen). Then, the NS5A region (nt. 4612 to 6013 of Con1 replicon) was reverse transcribed/amplified with AccuScript High Fidelity RT-PCR System (Stratagene). The cDNAs were cloned into pUC19 and sequenced at the Joint Genome Institute (Livermore, Calif.). Sequences were aligned against Con1(S11791) sequence, using BioEdit/MEGA 4.0 Molecular Evolutionary Genetics Analysis software.
To test whether ethanol can increase the mutation rate of HCV, SgPC2 Con1 replicon cells that support genotype 1b subgenomic HCV RNA replication (FIG. 2B) were incubated with ethanol (0.5%), BSO (amplifies the effects of endogenous ROS/RNS by decreasing the level of glutathione in the cell), H2O2 (100 μM), or acetaldehyde (10 μM) once daily for 48 hrs. Then, the RNAs were collected, and the NS5A region (nt. 4612 to 6013 of Con1 replicon) was reverse transcribed/amplified with AccuScript High Fidelity RT-PCR System (Stratagene). Then, the cDNAs were cloned into pUC19 and sequenced at the Joint Genome Institute (Livermore, Calif.). T7 HCV RNA transcript, initially used to transfect the Con1 cells, was also sequenced to assess the basal level of RNA heterogeneity, such as due to any heterogeneity of the DNA template prior to in vitro transcription as well as any errors generated during transcription and RT-PCR cloning. The experiments were focused on NS5A because of its moderate level of diversity and its role in viral replication as well as interferon resistance. Sequences were aligned against Con1(S1179I) sequence, using BioEdit/MEGA 4.0 Molecular Evolutionary Genetics Analysis software.

## C=CCSSCC=C [DADS, diallyl disulfide]
Con1 replicon cells
  level of 8-OHG in ethanol and BSO-treated replicon cells with inhibitor: reduce; also recorded: decreased

## O=C(O)CN(CCN(CC(=O)O)CC(=O)O)CCN(CC(=O)O)CC(=O)O [DETAPAC, 1,1,4,7,7-diethylenetriaminepentaacetic acid]
Con1 replicon cells
  level of 8-OHG in ethanol and BSO-treated replicon cells with inhibitor: decreased
Con1 replicon cells; DETAPAC 0.1 mM
  decrease of 8-OHG levels in BSO-treated SgPC2 cells: 19.7±0.2%
  decrease of 8-OHG levels in control SgPC2 cells: 28.0±0.3%
  decrease of 8-OHG levels in ethanol-treated SgPC2 cells: 13.8±0.3%

## c1ccc2c(c1)[I+]c1ccccc1-2 [DPI, diphenylene iodonium]
Con1 replicon cells
  level of 8-OHG in ethanol and BSO-treated replicon cells with inhibitor: reduce; also recorded: decreased

## c1ccc(-c2ccccn2)nc1 [Dipyridyl, α,α′-Dipyridyl]
[1]
  dn/ds ratio in the ethanol group with co-treatment: 0.46
  amino acid substitution rate in the BSO group with co-treatment: effectively abolished
  amino acid substitution rate in the ethanol group with co-treatment: significantly attenuated
  nt. substitution rates of ethanol and BSO groups with co-treatment: no longer any significant increase over the control
  percentage of sites undergoing positive selection with co-treatment: decreased
  dn/ds ratio of the control group with co-treatment: did not affect
  dn/ds ratio in the BSO group with co-treatment: 0.46
Con1 replicon cells
  level of 8-OHG in ethanol and BSO-treated replicon cells with inhibitor: significantly decreased

## CCOC(=O)CNC(=O)[C@H](CS)NC(=O)CC[C@H](N)C(=O)O [GSH ester, glutathione ethyl ester]
[1]
  dn/ds ratio in the ethanol group with co-treatment: 0.43
  amino acid substitution rate in the BSO group with co-treatment: not significantly above the control
  amino acid substitution rate in the ethanol group with co-treatment: not significantly above the control
  nt. substitution rates of ethanol and BSO groups with co-treatment: not significantly above the control
  percentage of sites undergoing positive selection with co-treatment: decreased
  dn/ds ratio of the control group with co-treatment: 0.24
  dn/ds ratio in the BSO group with co-treatment: 0.21
Con1 replicon cells
  level of 8-OHG in ethanol and BSO-treated replicon cells with inhibitor: reduce; also recorded: effectively decreased

## OO [H2O2, hydrogen peroxide]
[1]
  Nt. change per site: 5.28×10^−4 nt. change per site
  Fold increase (Amino acid change per site): about 10 fold
[2]
  increase in mutation frequency vs control: not statistically significant

## CC(=O)O.CNC(=N)NCCC[C@H](N)C(=O)O [L-NMA, N^G-methyl-L-arginine acetate]
Con1 replicon cells
  level of 8-OHG in ethanol and BSO-treated replicon cells with inhibitor: reduce; also recorded: decreased

## [Cl][Ni][Cl] [NiCl2]
Con1 replicon cells; 48 hrs, 0.5% (v/v) ethanol, 20 μM BSO, 250 μM NiCl2 daily
  fold increase in 8-OHG content over the control: 55.4±3.1 fold

## Cc1ncc(CO)c(C=NNC(=O)c2ccncc2)c1O [PIH, pyridoxal isonicotinoyl hydrazone]
Con1 replicon cells
  level of 8-OHG in ethanol and BSO-treated replicon cells with inhibitor: decreased
Con1 replicon cells; listed as pyridoxal isonicotinoyl hydrazone
  level of 8-OHG in ethanol and BSO-treated replicon cells with inhibitor: significantly decreased

## CC=O [acetaldehyde]
[1]
  Nt. change per site: 4.25×10^−4 nt. change per site
  Fold increase (Amino acid change per site): did not increase
[2]
  increase in mutation frequency vs control: not statistically significant
Con1 replicon cells; 0.1% ethanol, 5 μM acetaldehyde, 20 μM BSO
  8-OH-G in Con1 replicon (SgPC2) cells, daily treatment for 2 weeks: significant increases
